Measured values from patent US8822517B2, “Arylosulfonamides for the treatment of CNS diseases” (Adamed SP. Z O.O., priority 2010, dated 2014).

How the values were obtained:
[1] = biological target: T1, serotoninergic 5-HT7 receptor (Homo sapiens, UniProt P34969); test: Cellular functional assay, serotoninergic 5-HT7 receptor (agonism/antagonism); assay type: cell-based; conditions: for activation at 1 µM: agonist effect, percent of control specific agonist response, compounds tested at 1×10^−6M, read-out: 5-HT7-ag [%]; for inhibition at 1 µM: read-out: 5-HT7-antag. [%]
Description: (§1) The compounds were tested at the concentration of 1×10^−6M.
(§2) In the Tables ag refers to agonism, and antag to antagonism).

[2] = biological target: serotoninergic 5-HT2A receptor (Homo sapiens, UniProt P28223); test: Binding assay 5-HT2A (h), [3H]ketanserin, HEK-293 cells; parameters: expressed in transfected cells; host or cells: HEK-293 cells; conditions: read-out: 5-HT2A
In short: (§3)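 Single-concentration test (1×10^−6 M). Total and non-specific binding were counted by scintillation, and their difference defines specific binding.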

dopaminergic D2 receptor = dopaminergic D2 receptor (Homo sapiens, UniProt P14416); test: Binding assay D2S (h), [3H]methyl-spiperone, HEK-293 cells; parameters: expressed in transfected cells; host or cells: HEK-293 cells; conditions: read-out: D2 [%]
In short: as §3

[3] = biological target: T2, serotoninergic 5-HT6 receptor (Homo sapiens, UniProt P50406); test: Cellular functional assay, serotoninergic 5-HT6 receptor (agonism/antagonism); assay type: cell-based; conditions: for activation at 1 µM: agonist effect, percent of control specific agonist response, compounds tested at 1×10^−6M, read-out: 5-HT6-ag [%]; for inhibition at 1 µM: read-out: 5-HT6-antag. [%]
Description: as §1, §2

adrenergic α1 receptor = test: Binding assay α1 (non-selective), [3H]prazosin, rat cerebral cortex; conditions: percent inhibition of control specific binding; compounds tested at 1×10^−6 M
In short: as §3

muscarinic M3 receptor = biological target: T3, muscarinic M3 receptor (Homo sapiens, UniProt P20309); test: Binding assay M3 (h), [3H]4-DAMP, CHO cells; conditions: read-out: M3 [%]
T3 construct: expressed in transfected cells; host or cells: CHO cells
In short: as §3

sigma σ receptor = test: Binding assay σ (non-selective), [3H]DTG, rat cerebral cortex; conditions: percent inhibition of control specific binding; compounds tested at 1×10^−6 M
In short: as §3

dopaminergic D3 receptor = dopaminergic D3 receptor (Homo sapiens, UniProt P35462); test: Binding assay D3 (h), [3H]methyl-spiperone, CHO cells; parameters: expressed in transfected cells; host or cells: CHO cells; conditions: read-out: D3 [%]
In short: as §3

adrenergic α2C receptor = biological target: T4, adrenergic α2C receptor (Homo sapiens, UniProt P18825); test: Binding assay α2C (h), [3H]RX 821002, CHO cells; parameters: expressed in transfected cells; host or cells: CHO cells; conditions: read-out: α2C [%]
T4 sequence (P18825 1-462): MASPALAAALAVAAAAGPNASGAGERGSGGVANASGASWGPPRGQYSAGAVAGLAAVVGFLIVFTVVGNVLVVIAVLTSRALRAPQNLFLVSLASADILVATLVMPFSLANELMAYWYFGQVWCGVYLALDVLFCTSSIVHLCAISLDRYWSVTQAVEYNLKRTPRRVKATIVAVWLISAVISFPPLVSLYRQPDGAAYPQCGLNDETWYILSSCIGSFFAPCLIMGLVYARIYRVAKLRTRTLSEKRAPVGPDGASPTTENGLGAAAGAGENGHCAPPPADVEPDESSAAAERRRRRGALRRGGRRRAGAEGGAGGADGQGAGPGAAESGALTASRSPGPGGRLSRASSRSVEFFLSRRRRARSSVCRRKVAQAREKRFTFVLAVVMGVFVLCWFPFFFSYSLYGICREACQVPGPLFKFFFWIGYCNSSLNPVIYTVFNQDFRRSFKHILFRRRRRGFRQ
In short: as §3

[4] = biological target: T1, serotoninergic 5-HT7 receptor; test: Binding assay 5-HT7 (h), [3H]LSD, CHO cells; parameters: expressed in transfected cells; host or cells: CHO cells; conditions: read-out: 5-HT7
In short: as §3

[5] = biological target: T5, serotoninergic receptor 5-HT2C (Homo sapiens, UniProt P28335); test: Binding assay 5-HT2C (h), [3H]mesulergine, HEK-293 cells; conditions: read-out: 5-HT2C [%]
T5 construct: expressed in transfected cells; host or cells: HEK-293 cells
T5 sequence (P28335 33-458): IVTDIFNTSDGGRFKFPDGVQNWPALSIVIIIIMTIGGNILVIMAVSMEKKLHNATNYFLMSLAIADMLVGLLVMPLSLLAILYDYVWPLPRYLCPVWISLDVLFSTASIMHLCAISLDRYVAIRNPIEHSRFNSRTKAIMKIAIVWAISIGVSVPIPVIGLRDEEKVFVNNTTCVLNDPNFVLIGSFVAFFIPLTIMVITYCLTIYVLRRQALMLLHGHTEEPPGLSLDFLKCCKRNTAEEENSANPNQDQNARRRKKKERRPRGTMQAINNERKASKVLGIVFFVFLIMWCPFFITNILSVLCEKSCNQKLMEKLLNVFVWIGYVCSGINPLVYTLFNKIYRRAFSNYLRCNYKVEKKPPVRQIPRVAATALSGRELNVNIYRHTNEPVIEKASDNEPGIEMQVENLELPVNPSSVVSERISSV
In short: as §3

[6] = biological target: histaminergic H1 receptor (Homo sapiens, UniProt P35367); test: Binding assay H1 (h), [3H]pyrilamine, HEK-293 cells; parameters: expressed in transfected cells; host or cells: HEK-293 cells; conditions: read-out: H1 [%]
In short: as §3

[7] = biological target: T6, serotoninergic 5-HT1A receptor (Homo sapiens, UniProt P08908); test: Binding assay 5-HT1A (h), [3H]8-OH-DPAT, HEK-293 cells; parameters: expressed in transfected cells; host or cells: HEK-293 cells; conditions: read-out: 5-HT1A
T6 sequence (P08908 1-422): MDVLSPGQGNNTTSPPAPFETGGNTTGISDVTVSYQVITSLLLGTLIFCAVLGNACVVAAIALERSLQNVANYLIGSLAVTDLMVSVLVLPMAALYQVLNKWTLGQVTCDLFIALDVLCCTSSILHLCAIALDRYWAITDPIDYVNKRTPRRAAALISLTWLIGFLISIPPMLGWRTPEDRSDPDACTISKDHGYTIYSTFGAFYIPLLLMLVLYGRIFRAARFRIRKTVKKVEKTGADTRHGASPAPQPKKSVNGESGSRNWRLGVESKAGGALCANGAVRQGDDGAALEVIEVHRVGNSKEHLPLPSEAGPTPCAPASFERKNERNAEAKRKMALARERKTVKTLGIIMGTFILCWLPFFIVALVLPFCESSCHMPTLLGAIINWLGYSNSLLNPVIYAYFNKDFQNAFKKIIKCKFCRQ
In short: as §3

[8] = biological target: T2, serotoninergic 5-HT6 receptor; test: Binding assay 5-HT6 (h), [3H]LSD, CHO cells; parameters: expressed in transfected cells; host or cells: CHO cells; conditions: read-out: 5-HT6
In short: as §3

[9] = biological target: T7, serotonine transporter (SERT) receptor (Homo sapiens, UniProt P31645); test: Binding assay SERT (h), [3H]imipramine, CHO cells; conditions: read-out: SERT [%]
T7 construct: expressed in transfected cells; host or cells: CHO cells
In short: as §3

T7 sequence (P31645 whole entry): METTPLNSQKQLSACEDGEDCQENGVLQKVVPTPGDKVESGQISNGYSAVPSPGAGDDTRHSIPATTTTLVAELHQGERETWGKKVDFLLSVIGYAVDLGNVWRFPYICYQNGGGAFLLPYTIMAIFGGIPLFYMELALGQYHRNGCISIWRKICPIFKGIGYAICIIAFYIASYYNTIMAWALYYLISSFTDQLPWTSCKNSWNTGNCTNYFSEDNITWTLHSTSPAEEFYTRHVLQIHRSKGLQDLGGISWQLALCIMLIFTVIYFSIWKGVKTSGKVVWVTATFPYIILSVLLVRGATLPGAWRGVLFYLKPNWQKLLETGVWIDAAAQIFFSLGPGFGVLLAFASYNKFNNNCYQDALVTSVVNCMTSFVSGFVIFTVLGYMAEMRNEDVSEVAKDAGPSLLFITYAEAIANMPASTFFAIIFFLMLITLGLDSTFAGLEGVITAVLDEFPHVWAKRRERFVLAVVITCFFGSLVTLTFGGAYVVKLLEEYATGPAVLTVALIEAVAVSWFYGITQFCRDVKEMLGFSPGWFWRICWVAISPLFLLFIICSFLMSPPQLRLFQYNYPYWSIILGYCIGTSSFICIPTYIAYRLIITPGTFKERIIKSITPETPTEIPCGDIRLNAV
serotoninergic 5-HT2A receptor, sequence (P28223 whole entry): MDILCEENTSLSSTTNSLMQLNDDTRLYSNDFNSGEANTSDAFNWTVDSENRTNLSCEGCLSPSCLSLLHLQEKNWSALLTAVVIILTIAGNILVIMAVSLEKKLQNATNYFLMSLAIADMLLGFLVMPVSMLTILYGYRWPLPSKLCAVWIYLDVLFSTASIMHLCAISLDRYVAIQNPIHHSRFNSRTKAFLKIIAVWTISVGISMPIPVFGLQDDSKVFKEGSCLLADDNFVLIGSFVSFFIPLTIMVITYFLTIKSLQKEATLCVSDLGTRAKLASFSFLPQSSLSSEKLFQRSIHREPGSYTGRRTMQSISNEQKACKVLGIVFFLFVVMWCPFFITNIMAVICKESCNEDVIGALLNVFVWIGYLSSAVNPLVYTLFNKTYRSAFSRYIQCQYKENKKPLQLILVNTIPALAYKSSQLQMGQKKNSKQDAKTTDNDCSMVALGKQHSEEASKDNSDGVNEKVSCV
T1 sequence (P34969 whole entry): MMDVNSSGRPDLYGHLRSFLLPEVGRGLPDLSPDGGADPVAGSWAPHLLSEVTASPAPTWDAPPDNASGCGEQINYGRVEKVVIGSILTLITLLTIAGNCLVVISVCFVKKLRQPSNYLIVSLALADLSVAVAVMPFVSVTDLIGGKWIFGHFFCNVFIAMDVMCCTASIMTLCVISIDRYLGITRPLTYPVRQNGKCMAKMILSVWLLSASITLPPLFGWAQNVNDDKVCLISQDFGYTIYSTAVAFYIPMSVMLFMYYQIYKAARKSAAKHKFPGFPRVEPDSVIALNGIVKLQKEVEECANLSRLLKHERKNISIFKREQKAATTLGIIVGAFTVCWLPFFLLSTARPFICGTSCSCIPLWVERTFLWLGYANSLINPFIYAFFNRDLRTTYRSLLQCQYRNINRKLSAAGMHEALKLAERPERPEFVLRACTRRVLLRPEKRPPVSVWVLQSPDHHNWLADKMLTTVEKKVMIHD
T3 sequence (P20309 whole entry): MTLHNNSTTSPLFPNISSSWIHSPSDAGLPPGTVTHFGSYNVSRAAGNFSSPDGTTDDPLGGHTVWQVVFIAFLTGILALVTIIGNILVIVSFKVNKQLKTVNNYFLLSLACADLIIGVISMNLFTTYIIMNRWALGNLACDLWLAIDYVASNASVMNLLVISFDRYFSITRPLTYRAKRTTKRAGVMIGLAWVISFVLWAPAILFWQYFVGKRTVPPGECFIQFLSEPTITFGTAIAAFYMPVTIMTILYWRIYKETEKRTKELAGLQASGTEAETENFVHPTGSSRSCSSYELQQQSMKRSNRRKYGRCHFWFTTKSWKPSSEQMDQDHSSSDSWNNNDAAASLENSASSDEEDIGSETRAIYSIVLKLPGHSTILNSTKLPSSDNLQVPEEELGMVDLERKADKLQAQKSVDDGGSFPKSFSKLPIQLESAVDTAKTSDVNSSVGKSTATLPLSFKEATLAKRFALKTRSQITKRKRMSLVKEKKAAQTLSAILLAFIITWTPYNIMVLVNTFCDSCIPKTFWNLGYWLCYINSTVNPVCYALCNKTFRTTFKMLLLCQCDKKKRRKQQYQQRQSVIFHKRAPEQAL
histaminergic H1 receptor, sequence (P35367 whole entry): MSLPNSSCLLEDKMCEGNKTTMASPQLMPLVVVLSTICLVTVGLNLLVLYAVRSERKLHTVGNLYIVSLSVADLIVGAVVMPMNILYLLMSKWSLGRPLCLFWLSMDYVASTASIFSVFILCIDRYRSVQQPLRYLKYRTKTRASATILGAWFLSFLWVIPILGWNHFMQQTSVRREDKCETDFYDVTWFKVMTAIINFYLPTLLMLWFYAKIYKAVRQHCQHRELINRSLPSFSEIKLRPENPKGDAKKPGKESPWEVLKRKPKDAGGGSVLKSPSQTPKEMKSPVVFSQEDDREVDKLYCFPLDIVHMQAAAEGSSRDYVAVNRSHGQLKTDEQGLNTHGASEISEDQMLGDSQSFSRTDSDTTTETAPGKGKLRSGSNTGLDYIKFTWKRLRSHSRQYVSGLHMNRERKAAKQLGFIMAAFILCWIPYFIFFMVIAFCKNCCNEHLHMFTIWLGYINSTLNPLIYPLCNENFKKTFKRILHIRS
dopaminergic D3 receptor, sequence (P35462 whole entry): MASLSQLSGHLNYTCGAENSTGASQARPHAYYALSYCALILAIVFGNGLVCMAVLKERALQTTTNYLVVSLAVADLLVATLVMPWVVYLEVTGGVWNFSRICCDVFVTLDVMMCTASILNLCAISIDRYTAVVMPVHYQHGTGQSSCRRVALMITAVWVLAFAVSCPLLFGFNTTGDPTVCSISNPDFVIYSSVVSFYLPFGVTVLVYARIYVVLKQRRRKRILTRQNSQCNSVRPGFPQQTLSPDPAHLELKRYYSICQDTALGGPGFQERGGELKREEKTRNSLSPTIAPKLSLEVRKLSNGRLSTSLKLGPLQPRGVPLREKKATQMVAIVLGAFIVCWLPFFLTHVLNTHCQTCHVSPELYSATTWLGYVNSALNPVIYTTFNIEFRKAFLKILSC
dopaminergic D2 receptor, sequence (P14416 1-414 isoform P14416-2): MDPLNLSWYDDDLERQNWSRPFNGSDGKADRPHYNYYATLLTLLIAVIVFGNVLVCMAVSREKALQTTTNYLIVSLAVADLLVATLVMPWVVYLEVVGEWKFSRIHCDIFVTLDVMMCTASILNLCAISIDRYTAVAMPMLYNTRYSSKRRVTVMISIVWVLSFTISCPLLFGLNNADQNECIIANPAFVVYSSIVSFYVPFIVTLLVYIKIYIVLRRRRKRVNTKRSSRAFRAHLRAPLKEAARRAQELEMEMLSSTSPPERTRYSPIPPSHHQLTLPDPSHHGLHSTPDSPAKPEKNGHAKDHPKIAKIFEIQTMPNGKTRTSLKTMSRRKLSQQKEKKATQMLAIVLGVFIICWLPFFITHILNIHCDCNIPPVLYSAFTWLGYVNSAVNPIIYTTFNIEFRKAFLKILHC
T2 sequence (P50406 whole entry): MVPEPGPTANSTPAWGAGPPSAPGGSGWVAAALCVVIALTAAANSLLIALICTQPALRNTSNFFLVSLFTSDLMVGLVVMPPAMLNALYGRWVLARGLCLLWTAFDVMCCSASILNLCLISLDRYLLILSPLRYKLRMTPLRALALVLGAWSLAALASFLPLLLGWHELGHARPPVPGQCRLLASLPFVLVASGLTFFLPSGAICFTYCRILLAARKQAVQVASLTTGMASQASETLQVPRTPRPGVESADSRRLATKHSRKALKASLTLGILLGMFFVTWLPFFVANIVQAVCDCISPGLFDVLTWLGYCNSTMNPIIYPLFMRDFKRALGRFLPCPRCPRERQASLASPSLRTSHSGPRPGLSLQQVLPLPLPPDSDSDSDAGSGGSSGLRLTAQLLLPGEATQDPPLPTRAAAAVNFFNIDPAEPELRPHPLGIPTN

Compound	activation at 1 µM [1]	inhibition at 1 µM [1]	inhibition at 1 µM [2]	inhibition at 1 µM (dopaminergic D2 receptor)	activation at 1 µM [3]	inhibition at 1 µM [3]	α1 [%] (adrenergic α1 receptor)	inhibition at 1 µM (muscarinic M3 receptor)	σ [%] (sigma σ receptor)	inhibition at 1 µM (dopaminergic D3 receptor)	inhibition at 1 µM (adrenergic α2C receptor)	inhibition at 1 µM [4]	inhibition at 1 µM [5]	inhibition at 1 µM [6]	inhibition at 1 µM [7]	inhibition at 1 µM [8]	inhibition at 1 µM [9]
O=c1[nH]c2ccc(S(=O)(=O)NCCCCN3CCN(c4nsc5ccccc45)CC3)cc2o1 [Compound 4, N-(4-(4-(1,2-Benzothiazol-3-yl)piperazin-1-yl)butyl)-2-oxo-3H-1,3-benzoxazole-6-sulphonamide]	-1%	81%	99%	96%	-1%	37%	96%	3%	1%	98%	96%	97%	91%	100%	99%	87%	26%
O=S(=O)(NCCN1CCN(c2nsc3ccccc23)CC1)c1cccc2ccccc12 [Compound 9, N-(2-(4-(1,2-Benzothiazol-3-yl)piperazin-1-yl)ethyl)naphthalene-1-sulphonamide]	0%	48%	99%	91%	0%	-4%	74%	-2%	23%	90%	98%	98%	24%	77%	98%	22%	29%
O=S(=O)(NCCCCN1CCC(c2noc3cc(F)ccc23)CC1)c1cccs1 [Compound 325, N-[4-[4-(6-Fluoro-1,2-benzoxazol-3-yl)piperidin-1-yl]butyl]thiophene-2-sulphonamide]			102%	96%			95%	26%	85%	95%	93%	98%	49%	83%	62%	72%	20%
O=S(=O)(NCCCN1CCC(c2noc3cc(F)ccc23)CC1)c1cnc2ccccn12 [Compound 356, N-[3-[4-(6-Fluoro-1,2-benzoxazol-3-yl)piperidin-1-yl]propyl]imidazo[1,2-a]pyridine-3-sulphonamide]			99%	98%			101%	2%	70%	96%	96%	99%	83%	80%	95%	78%	11%
O=S(=O)(NCCCN1CCC(c2noc3cc(F)ccc23)CC1)c1cc2cccnc2[nH]1 [Compound 357, N-[3-[4-(6-Fluoro-1,2-benzoxazol-3-yl)piperidin-1-yl]propyl]-1H-pyrrolo[2,3-b]pyridine-2-sulphonamide]			101%	99%			99%	25%	64%	94%	94%	99%	83%	84%	63%	94%	41%
O=c1[nH]c2cccc(N3CCN(CCCCNS(=O)(=O)c4cccc5ccccc45)CC3)c2[nH]1 [Compound 418, N-[4-[4-(2-oxo-1,3-dihydrobenzimidazol-4-yl)piperazin-1-yl]butyl]naphthalene-1-sulphonamide]			36%	97%			98%	4%	6%	99%	94%	89%	19%	55%	98%	5%	5%
O=c1[nH]c2cccc(N3CCN(CCCCNS(=O)(=O)c4ccc5ccccc5c4)CC3)c2[nH]1 [Compound 419, N-[4-[4-(2-oxo-1,3-dihydrobenzimidazol-4-yl)piperazin-1-yl]butyl]naphthalene-2-sulphonamide]			52%	93%			86%	-8%	−14%	97%	93%	86%	7%	12%	98%	12%	-21%
O=S(=O)(NCCN1CC=C(c2c[nH]c3ccc(F)cc23)CC1)c1cccc(F)c1 [Compound 439, 3-Fluoro-N-[2-[4-(5-fluoro-1H-indol-3-yl)-3,6-dihydro-2H-pyridin-1-yl]ethyl]benzenesulphonamide]			83%	97%			27%	16%	80%	95%	68%	78%	41%	18%	99%	92%	93%
